Positions of bridges follow the written chain, without caps; N, C: chain ends. No end group written: not given here.
Experiments:
rASIC1b = target: T1, rASIC1b (Rattus norvegicus, UniProt P55926); assay: TEVC in Xenopus laevis oocytes expressing rASIC1b; format: cell-based; conditions: for remaining activity at 0.3 µM: 300 nM peptide, conditioning pH 7.45, stimulating pH 6, read-out: I/Icontrol; for loss in potency relative to wild-type Ma-3 (estimated): peptides applied at pH 7.45, stimulated at pH 6
T1 construct: expressed in transfected cells; host or cells: Xenopus laevis oocytes (cRNA injection)
T1 sequence (P55926 1-559 isoform P55926-3): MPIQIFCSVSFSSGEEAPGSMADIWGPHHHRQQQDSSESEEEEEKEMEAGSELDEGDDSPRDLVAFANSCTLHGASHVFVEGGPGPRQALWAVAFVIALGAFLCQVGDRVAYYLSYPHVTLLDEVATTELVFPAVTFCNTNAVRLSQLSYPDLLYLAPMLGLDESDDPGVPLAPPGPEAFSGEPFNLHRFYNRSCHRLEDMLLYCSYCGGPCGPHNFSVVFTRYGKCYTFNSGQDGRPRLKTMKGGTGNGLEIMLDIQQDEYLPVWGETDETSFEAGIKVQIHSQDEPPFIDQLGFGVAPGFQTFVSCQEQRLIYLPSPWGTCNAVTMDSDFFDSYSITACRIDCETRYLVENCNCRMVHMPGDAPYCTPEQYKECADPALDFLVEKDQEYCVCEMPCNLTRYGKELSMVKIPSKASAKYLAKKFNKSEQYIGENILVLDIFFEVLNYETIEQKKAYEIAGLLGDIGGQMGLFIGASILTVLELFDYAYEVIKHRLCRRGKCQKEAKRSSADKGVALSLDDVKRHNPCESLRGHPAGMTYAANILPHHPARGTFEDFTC
Method: (§1) Two-electrode voltage-clamp (TEVC) experiments using Xenopus laevis oocytes were conducted as previously described. Briefly, oocytes were surgically removed from anaesthetised female frogs, then treated with collagenase (~ 1 mg/ml, Sigma type I) for 2 h under agitation at room temperature. cRNAs were synthesised using a mMessage mMachine T7 or SP6 transcription kit (Thermo Fisher Scientific Australia Pty Ltd, Scoresby, VIC, Australia) and injected into healthy stage V–VI oocytes at 0.2–20 ng per cell. Different amounts of RNA were used for different wild-type and mutant constructs, as well as to titrate expression levels to record over multiple days and maintaining consistent expression levels. Injected oocytes were incubated at 17 °C for 1–7 days in 50% Leibovitz’s L-15 medium (Gibco, Thermo Fisher Scientific Australia Pty Ltd, Scoresby, VIC, Australia), supplemented with 25 µg/mL gentamicin, 25 µg/mL streptomycin, and 2.5% fetal horse serum. Membrane currents were recorded 2–7 days after cRNA-injection under voltage-clamp at -60 mV (Axon Axoclamp 900 A, Molecular Devices, CA, USA) using two standard glass microelectrodes of 0.5–1 MΩ resistance when filled with 3 M KCl solution. Data were sampled at 2 kHz and filtered at 0.1 kHz using Clampex 10 software (Molecular Devices, CA, USA). A microperfusion system was used to allow fast extracellular solution exchange (bath volume = ~ 30 µL). All experiments were performed at room temperature (18–23 °C) in ND96 (96 mM NaCl, 2 mM KCl, 1.8 mM CaCl2, 2 mM MgCl2, 5 mM HEPES, pH 7.45). In solutions below pH 6.8, HEPES was replaced by MES. All solutions containing peptides contained 0.05% fatty acid free bovine serum albumin to decrease adsorptive losses of peptide to plasticware. For all channels tested, control current magnitudes between 500 and 9000 nA when tested using a conditioning pH of 7.45 and stimulating pH of 6 (except for the chimeras that were stimulated with pH 5) were used for data collection. Before recording any experiments, oocytes were stimulated multiple times with low pH to minimise and stabilise tachyphylaxis/desensitisation, which were then accounted for during analysis. Complete recovery of currents from Ma-3 induced modulation within 3 min of washout at all channels tested allowed for correction for tachyphylaxis/desensitisation during analyses.
(§2) Specific to this work, the standard protocol was for oocytes to be conditioned at pH 7.45 and channels stimulated every 60 s using a 5 s pH 5 or 6 application, unless stated otherwise. For all concentration-response data, peptides were applied for ~ 50 s between each low pH stimulus application. Activation curves were determined by conditioning oocytes at pH 8 (Fig. 2e − g; and Fig. 5a and b) or 7.45 (Fig. 6; and Supplementary Fig. 2d and c) for 55 s and applying low pH stimuli from 7.25 to 5.0 for 5 s. Steady-state desensitisation (SSD) was determined by applying conditioning solutions of pH values from 8 to 6 for 115 s prior to stimulation by a pH drop to 5 for 5 s. Ma-3 was only applied in the conditioning solution for activation and steady-state desensitisation curves in the presence of peptide. Control pH-dependence curves were determined in the absence of any Ma-3. When assessing the effect of Ma-3 on the rASIC1a: ASIC1b chimeras (C92 and C166; and for the comparative wild-type data), the conditioning pH was 7.45 and stimulating pH 5 (Fig. 3b). Specific details of the conditioning and stimulating pH are noted in each figure legend.
(§3) Data were analysed using pCLAMP-Clampfit software (Version 11, Molecular Devices, CA, USA) and GraphPad Prism 9.5 and 10.2.2 (GraphPad Software, San Diego, CA, USA). To obtain the Hill coefficient (nH) and half-maximal response (EC50, IC50, or pH50) the Hill equation was fitted to normalised concentration-response curves by using a non-linear fit to the data of a four-parameter logistic equation (“sigmoidal dose-response” in GraphPad Prism 9.5). […]

rASIC1a = target: T2, rASIC1a (Rattus norvegicus, UniProt P55926); assay: TEVC in Xenopus laevis oocytes expressing rASIC1a; format: cell-based; conditions: for inhibition of currents at 300 nM: 300 nM peptide; for increase in IC50 (loss of potency) relative to wild-type Ma-3: peptides applied at pH 7.45, stimulated at pH 6
T2 construct: expressed in transfected cells; host or cells: Xenopus laevis oocytes (cRNA injection)
T2 sequence (P55926 1-526): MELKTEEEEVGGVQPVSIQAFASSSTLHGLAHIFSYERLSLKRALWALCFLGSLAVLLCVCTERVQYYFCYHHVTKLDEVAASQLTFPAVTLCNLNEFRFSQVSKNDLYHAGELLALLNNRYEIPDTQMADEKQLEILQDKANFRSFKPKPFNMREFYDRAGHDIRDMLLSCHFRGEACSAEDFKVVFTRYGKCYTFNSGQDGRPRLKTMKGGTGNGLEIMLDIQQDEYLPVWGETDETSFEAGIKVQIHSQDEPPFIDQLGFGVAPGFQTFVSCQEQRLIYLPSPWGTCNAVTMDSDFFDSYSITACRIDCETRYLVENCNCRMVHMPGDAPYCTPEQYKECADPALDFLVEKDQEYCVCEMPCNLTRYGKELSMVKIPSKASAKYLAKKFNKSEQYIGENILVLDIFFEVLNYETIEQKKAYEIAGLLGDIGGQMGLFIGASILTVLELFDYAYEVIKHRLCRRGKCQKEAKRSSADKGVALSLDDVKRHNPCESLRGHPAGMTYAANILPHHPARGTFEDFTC
Method: as §1, §2, §3

[1] = conditioning pH 7.45, stimulating pH 6
[2] = 100 nM Ma-3, conditioning pH 8, mean ± SEM
[3] = 100 nM Ma-3, stimulating pH 5, mean ± SEM
[4] = 100 nM Ma-3 in conditioning solution, conditioning pH 8, Hill fit, mean ± SEM, n = 5–8
[5] = 100 nM Ma-3 in conditioning solution, stimulating pH 5, Hill fit, mean ± SEM, n = 5–8

H-SLKCYQHGAVVTCHRDMKFCYHNIGMPFRNLKLILQGCSSSCSETENNKCCSTDRCNK (disulfide 4-20, 13-38, 42-50, 51-56 (inferred)) [K8A]
remaining activity at 0.3 µM (rASIC1b; n = 5–8): 91%
loss in potency relative to wild-type Ma-3 (estimated) (rASIC1b): > 30 fold
inhibition of currents at 300 nM (rASIC1a; [1]): strongly inhibit
increase in IC50 (loss of potency) relative to wild-type Ma-3 (rASIC1a): ~ 4 fold

H-SLKCYQHGKVVTCHRDAKFCYHNIGMPFRNLKLILQGCSSSCSETENNKCCSTDRCNK (disulfide 4-20, 13-38, 42-50, 51-56 (inferred)) [M16A]
remaining activity at 0.3 µM (rASIC1b; n = 5–8): 80%
loss in potency relative to wild-type Ma-3 (estimated) (rASIC1b): > 30 fold
inhibition of currents at 300 nM (rASIC1a; [1]): strongly inhibit
increase in IC50 (loss of potency) relative to wild-type Ma-3 (rASIC1a): no change

H-SLKCYQHGKVVTCHRDMKFCYHNIGMPFRNLKLILQGCSSSCSETENNKCCSTDRCNK (disulfide 4-20, 13-38, 42-50, 51-56 (inferred)) [Ma-3, mambalgin-3]
shift in the activation curve (rASIC1b; 100 nM Ma-3, conditioning pH 8): no shift
slope of activation curve in presence of Ma-3 (rASIC1b; [2]): 3.69 ± 0.56
shift of the SSD curve towards alkaline values (rASIC1b; 100 nM Ma-3, stimulating pH 5): 0.06 pH units
slope of SSD curve in presence of Ma-3 (rASIC1b; [3]): 2.41 ± 0.51
pH50 of activation in presence of Ma-3 (rASIC1b; [4]): 6.03 ± 0.02
pH50 of steady-state desensitisation (SSD) in presence of Ma-3 (rASIC1b; [5]): 7.04 ± 0.04
t1/2 of onset of inhibition (rASIC1b; 300 nM Ma-3 (~ 10 times the IC50) applied at pH 7.45 for different durations, single exponential fit, n = 5): 3.8 s
pH50 of activation in presence of Ma-3 (rASIC1b; 300 nM Ma-3, conditioning pH 7.45, Hill fit, n = 5–6): 6.17
time of Ma-3 application to maximal inhibition (rASIC1b; 300 nM Ma-3 at pH 7.45): ≤ 45 s
remaining activity at 0.3 µM (rASIC1b; n = 5–8): 40%
t1/2 of recovery of currents from inhibition (washout) (rASIC1b; after 300 nM Ma-3, pH 7.45 conditioning, single exponential fit, n = 5): 12.8 s
t1/2 of onset of inhibition (rASIC1a; 30 nM Ma-3 (~ 10 times the IC50) applied at pH 7.45 for different durations, single exponential fit, n = 6): 6.5 s
time of Ma-3 application to maximal inhibition (rASIC1a; 30 nM Ma-3 at pH 7.45): ≤ 45 s
shift of the activation curve towards more acidic values (rASIC1a; 100 nM Ma-3, conditioning pH 8): 0.48 pH units
slope of activation curve in presence of Ma-3 (rASIC1a; [2]): 1.29 ± 0.67
alkaline shift in the SSD curve (rASIC1a; 100 nM Ma-3, stimulating pH 5): 0.08 pH units
slope of SSD curve in presence of Ma-3 (rASIC1a; [3]): 7.09 ± 1.34
pH50 of activation in presence of Ma-3 (rASIC1a; [4]): 5.72 ± 0.23
pH50 of steady-state desensitisation (SSD) in presence of Ma-3 (rASIC1a; [5]): 7.42 ± 0.04
pH50 of activation in presence of Ma-3 (rASIC1a; 100 nM Ma-3 in the pH 8 conditioning solution, Hill fit (Supplementary Table 7), n = 5–6): 5.60
inhibition of currents at 300 nM (rASIC1a; [1]): strongly inhibit
fold more potent inhibition of rASIC1a than rASIC1b (rASIC1a; IC50 ratio, conditioning pH 7.45, stimulating pH 6): ~ 10 fold
t1/2 of recovery of currents from inhibition (washout) (rASIC1a; after 30 nM Ma-3, pH 7.45 conditioning, single exponential fit, n = 6): 21.6 s
inhibition at saturating Ma-3 concentrations (rASIC1a; [1]): completely inhibited

Reference: PMC11335189, “Revealing molecular determinants governing mambalgin-3 pharmacology at acid-sensing ion channel 1 variants” (Cellular and Molecular Life Sciences: CMLS, 2024)
